Among the test systems are A498 renal; HT29 colon; LOX IMVI melanoma; OVCAR-5 ovarian; SNB-19 CNS; SR leukemia; HOP-62 NSCLC; MCF7 breast; MDA-MB-435.
Common to all, as to test: DTP human tumour cell line panel, 48 h

Structures are written as SMILES.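 Exposure lasted 48 hours, with cells grown in 96-well plates and compounds tested at five concentrations. At the GI50, growth is halved. Definition used: TGI = concentration required for complete inhibition of growth.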

Broadly, the TGI is the concentration at which net growth stops. In general, GI50 refers to the concentration that inhibits growth by half.

For `Cc1ccc(NC(=O)CC2C(=O)Nc3ccccc3S2(=O)=O)cc1C` (stereo not drawn), the TGI with A498 renal, in the assay on HT29 colon, in the assay with LOX IMVI melanoma, in the assay with OVCAR-5 ovarian, in the assay with SNB-19 CNS and with SR leukemia was > 100 µM each time.
For the compound `CCOc1cc[n+](C(=C=[N-])C#N)cc1`, the TGI in the assay on A498 renal, with HOP-62 NSCLC, in the assay with HT29 colon, in the assay with LOX IMVI melanoma, with OVCAR-5 ovarian and in the assay with SNB-19 CNS was > 100 µM each time. For the same compound, in the assay on SR leukemia, the TGI was > 100 µM.
On to `C/C(=N\NS(=O)(=O)c1ccccc1)c1ccc[n+]([O-])n1`, for which the TGI in the assay on A498 renal, in the assay on HOP-62 NSCLC, with HT29 colon, with OVCAR-5 ovarian, in the assay with SNB-19 CNS and with SR leukemia was > 100 µM throughout.
On to `CCOc1ccccc1NC(=O)C(=O)c1c(O)c2ccc(O)cc2oc1=O`, for which the TGI with A498 renal, in the assay on HOP-62 NSCLC, with HT29 colon, in the assay on LOX IMVI melanoma, in the assay on OVCAR-5 ovarian and in the assay on SNB-19 CNS was > 100 µM in each case. In the assay on SR leukemia, the TGI is > 100 µM.
In the case of `C=C1CC(CC(=O)C(C)CC2CC(=C)C(=O)O2)OC1=O` (stereo not drawn), the TGI was > 100 µM in the assay on A498 renal; > 100 µM with HOP-62 NSCLC; 63.2 µM in the assay with HT29 colon; 29.2 µM in the assay on LOX IMVI melanoma; > 100 µM with OVCAR-5 ovarian; > 100 µM in the assay with SNB-19 CNS. Also, the TGI in the assay with SR leukemia stood at 24.1 µM.
Take `Cc1ccc(SSCCCCS(=O)O)cc1`: the TGI is 54.6 µM in the assay on A498 renal; 81.1 µM in the assay on HOP-62 NSCLC; 53.7 µM in the assay on HT29 colon; 76.1 µM in the assay on LOX IMVI melanoma; 96.3 µM in the assay on OVCAR-5 ovarian; > 100 µM with SNB-19 CNS.
As for `CCCCCCC(=O)CC(=O)C(=O)Nc1ccccc1C`, the TGI with A498 renal was > 100 µM; with HOP-62 NSCLC, > 100 µM; in the assay on HT29 colon, > 100 µM; in the assay on LOX IMVI melanoma, > 59 µM; in the assay on OVCAR-5 ovarian, > 100 µM; in the assay on SNB-19 CNS, > 100 µM. In addition, the TGI in the assay with SR leukemia is > 100 µM.
As for `Cc1c(C(=O)Nc2ccc(Cl)cc2)nc(N)nc1-c1cccc(Cl)c1`, the TGI in the assay on HOP-62 NSCLC, in the assay on HT29 colon, with OVCAR-5 ovarian, with SNB-19 CNS and in the assay on SR leukemia was > 100 µM each time.
Regarding `Nc1ncnc2c1ncn2COC/C=C/I`, the concentration for total growth inhibition (TGI) with A498 renal, in the assay with HOP-62 NSCLC, in the assay with HT29 colon, with LOX IMVI melanoma, in the assay with OVCAR-5 ovarian and in the assay with SNB-19 CNS was > 100 µM throughout. In the assay with SR leukemia, the TGI was > 100 µM.
Consider `CC1=C(C(=O)NCc2ccccc2)C(c2ccccc2O)C(C(=O)NCc2ccccc2)=C(C)N1`, for which the TGI in the assay with A498 renal is 33.9 µM; in the assay on HOP-62 NSCLC, 39.5 µM; with HT29 colon, 38.5 µM; in the assay on LOX IMVI melanoma, 30.1 µM; with OVCAR-5 ovarian, 38 µM; in the assay with SNB-19 CNS, 42.4 µM. Also, in the assay with SR leukemia, the TGI is > 65.9 µM.
In the case of `CC(=O)Nc1ccccc1S(=O)c1ccccc1` (stereo not drawn), the TGI in the assay with A498 renal, in the assay with HOP-62 NSCLC, in the assay with HT29 colon, in the assay with LOX IMVI melanoma, in the assay on OVCAR-5 ovarian and with SNB-19 CNS was > 100 µM throughout.
As to `NNC(=O)N/N=C1/C(=O)N(c2ccc(Cl)c(Cl)c2)C(=O)C(=O)C1c1nc2ccccc2o1` (stereo not drawn), the total growth inhibition concentration (TGI) in the assay on A498 renal, with HOP-62 NSCLC, with HT29 colon, with LOX IMVI melanoma, in the assay with OVCAR-5 ovarian and in the assay on SNB-19 CNS was > 100 µM each time.
In the case of `CCN(CC)c1ccc(N=C2C=CC(=C(C#N)C#N)c3ccccc32)c(C)c1`, the TGI amounted to 6.25 µM in the assay with HOP-62 NSCLC, 24.9 µM with HT29 colon, 4.75 µM in the assay on LOX IMVI melanoma and 13.1 µM in the assay on SNB-19 CNS.
`Cc1ccccc1NC(=O)CC(=O)n1nc(-c2ccccc2)c(N=Nc2ccc([N+](=O)[O-])cc2)c1-c1ccccc1`: the TGI in the assay on HOP-62 NSCLC was 48.3 µM; with HT29 colon, 24.5 µM; in the assay with LOX IMVI melanoma, 46.6 µM; in the assay with OVCAR-5 ovarian, > 100 µM; with SNB-19 CNS, > 100 µM; with SR leukemia, > 100 µM.
Take `COc1ccc(S(=O)(=O)N/N=C/CN2C(=O)c3ccccc3C2=O)cc1`: the TGI with A498 renal, in the assay with HOP-62 NSCLC, in the assay with HT29 colon, in the assay on LOX IMVI melanoma, with SNB-19 CNS and in the assay on SR leukemia was > 100 µM in each case.
On to `NC(C(=O)O)c1ccc(C(=O)O)cc1` (stereo not drawn), for which the TGI with HOP-62 NSCLC, in the assay on HT29 colon, with LOX IMVI melanoma, with OVCAR-5 ovarian, with SNB-19 CNS and in the assay with SR leukemia was > 100 µM throughout.
In the case of `CN(C)c1ccc(/C=c2\sc3nnc(Cc4ccccc4)n3c2=O)cc1`, the GI50 was > 100 µM in the assay with A498 renal; > 100 µM with HOP-62 NSCLC; > 10 µM in the assay with HT29 colon; > 100 µM in the assay on OVCAR-5 ovarian; > 100 µM in the assay with SNB-19 CNS; > 100 µM in the assay on SR leukemia. Also, the TGI is > 100 µM in the assay with A498 renal; > 100 µM with HOP-62 NSCLC; > 100 µM in the assay with HT29 colon; > 10 µM in the assay with LOX IMVI melanoma; > 100 µM in the assay with OVCAR-5 ovarian; > 100 µM in the assay on SNB-19 CNS. The TGI in the assay on SR leukemia was > 100 µM.
In the case of `COc1ccc([Se]c2ccc(OC)cc2)cc1`, the TGI in the assay with A498 renal, in the assay with HOP-62 NSCLC, in the assay with HT29 colon, with LOX IMVI melanoma and in the assay with SNB-19 CNS was > 100 µM throughout.
As for `CSc1nc(-c2cccc(NC(=O)CCl)c2)c(C#N)c(=O)n1C`, the GI50 is 5.51 µM in the assay on A498 renal; 2.16 µM in the assay with HOP-62 NSCLC; 1.68 µM in the assay on HT29 colon; 0.0184 µM with LOX IMVI melanoma; 0.24 µM in the assay with MCF7 breast; 2.06 µM in the assay on MDA-MB-435. In addition, the GI50 is 1.83 µM in the assay with OVCAR-5 ovarian and 1.63 µM in the assay on SNB-19 CNS. Besides, the TGI in the assay on A498 renal came to 32.9 µM; in the assay with HOP-62 NSCLC it was 4.87 µM; in the assay with HT29 colon, 3.9 µM; in the assay on LOX IMVI melanoma it was 0.0342 µM; in the assay on MCF7 breast, 2.39 µM; with MDA-MB-435, 5.98 µM. In addition, the TGI with OVCAR-5 ovarian was determined as 3.38 µM; in the assay with SNB-19 CNS it was 3.29 µM.
